≈ marks a conversion by molar mass, not a printed value.
What was measured:
[1] = system: bovine papilloma virus type I (BPV-1)-transformed HEF (HEF-BPV); experiment: BPV-infected hamster embryo fibroblasts (HEF) cell proliferation assay; assay type: cell-based; conditions: 72 hr incubation
Experimental: Briefly, hamster embryo fibroblasts and bovine papilloma virus type I (BPV-1)-transformed HEF (HEF-BPV) were grown in Eagle's basal medium. […] and HEF cells were seeded in 96-well plates at a density of 0.5×10^6 cells per plate in DMEM cell culture medium containing 10% fetal calf serum at pH 6.8. The plates were then incubated in the presence of 5% CO2 in 100% humidity at 37° C. After 6 hr, the cell culture medium in the plates was exchanged with fresh DMEM cell culture medium containing test compounds at a series of concentrations. The plates were incubated at 37° C. for additional 72 hr. Cells in the plates were then washed with PBS, fixed with 3% formaldehyde solution containing 0.9% NaCl for 1 min, washed by water for 10 sec, and dried overnight. For detection, the plates were stained with crystal violet solution for 5 min at room temperature, washed 5 times with water, and dried at room temperature overnight. After adding ethanol/acetic acid (99:1, v/v, […]) to each well, the plates were measured at 595 nm using an ELISA reader.

[2] = molecular target: T1, phosphatidylcholine-specific phospholipase C (PC-PLC) (Bacillus cereus, UniProt P09598); experiment: Amplex Red phosphatidylcholine-specific phospholipase C (PC-PLC) inhibition assay; assay type: biochemical, B. cereus; conditions: 30 min at 37° C., triplicate; read-out: IC50 (converted)
T1 construct: purchased Invitrogen
Experimental: The inhibitory activities of optically active potassium salts of (+)- and (−)-O-exo/C-exo-tricyclo [5.2.1.0^2,6]-dec-9-yl-xanthic acid 1A ((+)- and (−)-enantiomers 1A) against phosphatidylcholine-specific phospholipase C were evaluated, together with D609 and potassium salt of racemic O-exo/C-exo xanthic acid 1A (racemic 1A), using Amplex Red phosphatidylcholine-specific phospholipase C(PC-PLC) assay kit, which was obtained from Invitrogen (Calsbad, Calif.). D609 was obtained from Sigma Aldrich.
An Amplex Red stock solution (˜20 mM), a working reaction buffer, and a horseradish peroxidase stock solution (200 U/mL), a H2O2 working solution (20 mM), a choline oxidate stock solution (20 U/mL), an alkaline phosphatase stock solution (400 U/mL), and a B. cereus PC-PLC stock solution (10 U/mL) were prepared according to the instruction of the assay kit. The stock solution (100 mg/mL) for each test compound was also prepared by dissolving the compound in water 2 hr prior to the start of the experiment.
A working Amplex Red/HRP/lecithin solution was prepared by adding 200 μL of Amplex Red reagent stock solution, 100 μL of HRP stock solution, 200 μL of alkaline phosphatase stock solution, 100 μL of choline oxidase stock solution, and 78 μL of the lecithin solution to […] of the working reaction buffer. PC-PLC solution (0.2 U/mL) was prepared by diluting the PC-PLC stock solution with the working reaction buffer to the desired concentration.
The test compound (25 μL) at a serious of concentrations was pipetted into a 96 well plate. For uninhibited PC-PLC controls and non-PC-PLC controls, 25 μL of water was added. After the addition of 50 μL of the Amplex Red/HRP/lecithin working solution, the reaction was initiated by adding 25 μL of PC-PLC solution to each well. To the non-PC-PLC controls, 25 μL of water was added instead of PC-PLC solution. The experiment was performed in triplicate. The reactions were protected from light. After incubated for 30 min at 37° C., the reactions were measured with a fluorescence microplate reader using excitation at 550 nm and emission detection at 590 nm. The fluorescent data obtained were corrected for background fluorescence by subtracting the values obtained from the non-PC-PLC controls.

[3] = system: herpes simplex virus type 2; experiment: HSV-2 inhibition in Calu-6 cells, plaque titration on RITA cells; assay type: cell-based; conditions: Human alphaherpesvirus 2, Calu-6; 48 hr, 50 plaque forming units per well
Experimental: (§1) Calu-6 cells and RITA cells were grown in DMEM cell culture medium containing 10% fetal calf serum in CO2 incubator under 5% CO2 at 37° C. with 100% humidity.
For HSV-2 inhibition, Calu-6 cells were seeded in 96 well plates at a density of 3×10^6 cells per plate in the DMEM cell culture medium. The plates were incubated at 37° C. in the presence of 5% CO2 for 24 hr. The DMEM cell culture medium in the plates was removed and the cells were infected with Herpes simplex virus type-2 at 50 plaque forming units per well. After incubation at 37° C. for 60 min, test compounds in DMEM cell culture medium at a series of concentrations were added. The plates were incubated at 37° C. in the presence of 5% CO2 for 48 hr. The plates were frozen at −20° C. prior to further analysis. After thawing at room temperature, supernatants containing infectious virus particles were prepared by centrifuging the supernatant from each well at 18,000 g at 4° C. for 5 min. The supernatant was further diluted before assay.
RITA cells were seeded in 24 well Linbra plates at a density of 4×10^6 cells per plate in 2 mL of DMEM cell culture medium. The plates were incubated at 37° C. in the presence of 5% CO2 for 24 hr. […] The number of plaques was determined macroscopically. […] The therapeutic index was also calculated for each compound by dividing LD50 with IC50.

Calu-6 cells = experiment: Cytotoxicity assay in Calu-6 cells (crystal violet); assay type: cell-based; conditions: 48 hr
Experimental: as §1
For cytotoxicity assay, Calu-6 cells were seeded in 96 well plates at a density of 3×10^6 cells per plate in the DMEM cell culture medium. The plates were incubated at 37° C. in the presence of 5% CO2 for 24 hr. The DMEM cell culture medium in the plates was exchanged with fresh DMEM cell culture medium containing test compounds at a series of concentrations. The plates were incubated at 37° C. in the presence of 5% CO2 for 48 hr. The plates were then washed with PBS, fixed with 3% formaldehyde solution containing 0.9% NaCl for 1 min, washed by water for 10 sec, and dried overnight. For detection, the plates were stained with crystal violet solution for 5 min at room temperature, washed 5 times with water, and dried at room temperature overnight. After adding ethanol/acetic acid (99:1, v/v, […]) to each well, the plates were measured at 595 nm using an ELISA reader. A dose response curve was obtained for each compound tested by plotting the mean values of the optical densities against compound concentration.

T1 sequence (P09598 39-283 limits assumed): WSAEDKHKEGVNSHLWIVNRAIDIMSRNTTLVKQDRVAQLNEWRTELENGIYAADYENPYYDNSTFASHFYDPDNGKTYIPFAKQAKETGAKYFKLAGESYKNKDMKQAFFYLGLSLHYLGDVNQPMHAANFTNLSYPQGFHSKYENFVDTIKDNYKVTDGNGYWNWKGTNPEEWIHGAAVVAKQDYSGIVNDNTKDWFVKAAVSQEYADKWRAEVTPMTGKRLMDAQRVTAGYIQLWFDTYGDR

## S=C(S)O[C@@H]1C[C@@H]2C[C@H]1[C@H]1CCC[C@@H]21 (racemic) [Racemic 1A, racemic O-exo/C-exo xanthic acid 1A, reference compound]
[1]
  IC50: 14.55 ± 0.07 µg/mL (≈ 63.7 µM)
[2]
  IC50: 44 µM
[3]
  IC50: 17.2 ± 5.95 µg/mL (≈ 75.2 µM)
Calu-6 cells
  LD50: 96.93 ± 7.12 µg/mL
